From patent US8461297B2, “Cytoplasmic malate dehydrogenase (MDH1) targeted treatment for neurodegenerative diseases” (Ramot at Tel-Aviv University, Ltd., priority 2007, dated 2013)
Ends that are not written are not given here. 5,6‑TAMRA = 5,6-carboxytetramethylrhodamine fluorescent label at the N-terminus

Legend:
Assay type in all cases: cell-based
[1] = test system: WT-hSOD1-GFP-expressing NSC-34 cells; experiment: Cell survival (methylene blue assay) under rotenone or low-glucose challenge, WT-hSOD1-GFP cells
Protocol: (§1) The functional significance of the loss of such interaction was assessed by alleviation of the rotenone (a mitochondrial inhibitor) or low-glucose challenge in NSC-34 clones expressing an inducible form of the mutant G93A SOD1-GFP as monitored by cell survival. The […] (SEQ ID NO: 1) peptide was synthesized (SBS Gentech Beijing) with 5,6-TAMRA modification (to allow detection) at the N-terminus. The TAMRA-modified peptide was dissolved in 10% acetic acid and added to cell culture medium in culture medium containing 1% ethanol. Thus, 15,000 cells (WT-hSOD1 or G93A-hSOD1) seeded in each well of a 96-well plate in DMEM, 10% serum. 24 hours later, cells were incubated with 1*10^-6M cytMDH peptide (or acetic acid/ethanol vehicle) for 4 h without serum. 1-10 micromole/L Rotenone in DMEM, 10% serum was then added for 24 hours, or medium replaced with low glucose (1 mg/ml) in DMEM with 5% serum for 72 hours. Cell survival was then assessed. It was expected that if the identified peptide interaction is resolving the gain of toxic interaction of G93A SOD1-GFP, then survival of the cells upon rotenone- or low-glucose challenge will improve.
(§2) 15,000 cells (WT-hSOD1 or G93A-hSOD1) were seeded in each well of a 96 well-plate in DMEM, 10% serum. 24 hours later, the cells were incubated with 3 mM octanoic acid with and without 1-10 micromole/L rotenone in DMEM, 10% serum for 24 hours. Or, cells were incubated with 3 mM octanoic acid and medium replaced with regular ([…]) or low (1 mg/ml) glucose in DMEM with 5% serum for 72 hours. Cell survival was then assessed. It was expected that if the gain of toxic interaction of G93A SOD1-GFP is due to inhibition of the malate-aspartate shuttle, octanoic acid will provide an alternative energy source through the alternative shunt and the survival of the cells upon rotenone or low-glucose challenge will improve.
(§3) Cell survival was assessed by the methylene blue assay. Cells were fixed with 4% formaldehyde solution for 1 h, then washed with 0.1M sodium borate buffer pH8.5, stained with 1% methylene blue for 20 min and washed with water. Cell-bound dye was eluted with 200 μl of 0.1M HCl. The optical density was assessed at 595 nm in ELISA plate reader.
(§4) The […] (SEQ ID NO: 1) peptide was synthesized (SBS Gentech Beijing) with 5,6-TAMRA modification (to allow detection) at the N-terminus, dissolved in 10% acetic acid, and diluted in cell culture medium containing 1% ethanol. Thus, 15,000 cells (WT-hSOD1 or G93A-hSOD1) seeded in each well of 96 wells plate in DMEM, 10% serum and doxycline (to induce expression of the hSOD1 proteins). 24 hours later, medium was replaced with serum free DMEM, and cells were incubated with 1 micromol/liter of the TAMRA-labeled […] peptide or vehicle (1% acetic acid/ethanol) for 4 hours. […] Cell survival was then assessed.

[2] = test system: G93A-hSOD1-GFP-expressing NSC-34 cells; experiment: Cell survival (methylene blue assay) under rotenone or low-glucose challenge, G93A-hSOD1-GFP cells
Protocol: as §1, §2, §3, §4

[3] = molecular target: T1, G93A-hSOD1/cytMDH complex (Homo sapiens, UniProt P00441, G94A); experiment: FACS-based FRET test of peptides competing for the G93A-hSOD1-CFP/cytMDH-YFP interaction in co-transfected NSC-34 cells; conditions: myc-tagged peptide expression plasmid co-transfected at 1:1:1 ratio, excitation 405 nm, emission 530 nm
T1 construct: expressed in transfected cells; host or cells: NSC-34 cells (transient co-transfection)
Description: The screening method was based on the fluorescence resonance energy transfer (FRET) system between cyan fluorescence protein (CFP) chimera proteins and yellow fluorescence protein (YFP) chimera proteins. The present inventors designed and used this system to identify the specific interaction of G93A SOD1 with MDH1 so as to identify a motif within MDH1 that is critical for the G93A SOD1-MDH1 interaction. The agents tested were peptides derived from MDH1.
A Myc-tagged peptide library expressing small fragments of the MDH1 was prepared. MDH1 cDNA was digested with AluI or/and DpnI and the fragments were cloned so that each peptide was placed in the correct reading frame of the original protein and in frame to the human myc tag sequence. G93A SOD1-CFP and MDH1-YFP expression plasmids were transfected into NSC-34 cells with and without the myc-tagged library.
The hypothesis is that the specific MDH1-derived peptides comprising the interacting motif will compete with MDH1 for the G93A SOD1-MDH1 interaction site. In such case, the CFP and YFP fluorescence of the G93A SOD1-CFP and MDH1-YFP will still be present, but the FRET signal will be diminished. The screening studies were performed using a cell sorter (FACS) with 405 nm excitation laser and a 530/30 nm emission filter. […] RNA was extracted from the sorted cells, converted into cDNA and subjected to PCR amplification in order to amplify the peptides DNA sequences.
The DNA sequence from the sorted cells was re-cloned. Four clones were obtained, one corresponding to amino acids 14-27 of the cytMDH protein GQIAHSLLYSIGNG (SEQ ID NO: 2) and three corresponding to amino acids 217-239 of the cytMDH protein […] (SEQ ID NO: 1). The identified clones were re-analyzed in the FACS-based system to verify their ability to compete for the G93A SOD1-MDH1 interaction at 1:1:1 ratio levels. Thus, 5*10^6 NSC-34 cells were transfected with equal amounts of G93A-hSOD1-CFP and cytMDH-YFP and the suspected myc-tagged cytMDH peptide-expressing plasmids.
Ability of the 217-239 peptide to disrupt the G93A-hSOD1-cytMDH1 complex was tested by co-transfection into NSC-34 cells of constructs encoding myc-tagged 217-239 and the FRET-enabled G93A-hSOD1/cytMDH proteins, followed by FACS analysis to measure FRET.

T1 sequence (P00441 2-154 G94A limits assumed, one chain of several): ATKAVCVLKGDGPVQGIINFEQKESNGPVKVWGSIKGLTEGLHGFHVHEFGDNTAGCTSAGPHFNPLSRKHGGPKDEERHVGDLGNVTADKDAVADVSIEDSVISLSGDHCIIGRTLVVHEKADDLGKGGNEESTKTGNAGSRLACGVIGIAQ

With “SWLKGEFITTVQQRGAAVIKARK ({5,6‑TAMRA}-SWLKGEFITTVQQRGAAVIKARK; listed as Mus musculus) [217-239 peptide, amino acids 217-239 of the cytMDH protein]” the “effects of rotenone on cell viability in the presence of peptide” value ([1]; 1 micromol/liter TAMRA-labeled peptide 4 h, then 0.5 micromol/L rotenone 24 h, WT-hSOD1-GFP cells) was “not”, the “effects of low glucose on cell viability in the presence of peptide” value ([1]; 1 micromol/liter TAMRA-labeled peptide, low glucose (1 mg/ml) DMEM, 5% serum, 72 h, WT-hSOD1 cells) was “not” and the “effects of rotenone on cell viability in the presence of peptide” value ([2]; 1 micromol/liter TAMRA-labeled peptide 4 h, then 0.5 micromol/L rotenone 24 h, G93A-hSOD1-GFP cells) was “greatly diminished”. For the same molecule, the “effects of low glucose on cell viability in the presence of peptide” value ([2]; 1 micromol/liter TAMRA-labeled peptide, low glucose (1 mg/ml) DMEM, 5% serum, 72 h, G93A-hSOD1 cells) was “significantly diminished”, the “FRET signal of G93A-hSOD1-CFP/cytMDH-YFP (disruption of the complex)” value (“FRET signal of G93A-hSOD1-CFP/cytMDH-YFP” for short) [3] was “blocked FRET” and the “FRET signal of G93A-hSOD1-CFP/cytMDH-YFP” value ([3]; listed as SEQ ID NO: 1) was “prevented the FRET”. The “FRET signal of G93A-hSOD1-CFP/cytMDH-YFP” value ([3]; listed as peptide 217-239) was “negative FRET”.

`CCCCCCCC(=O)O` [octanoic acid, reference compound] was tested, and the “effects of low glucose on cell viability in the presence of octanoic acid” value ([1]; 3 mM octanoic acid, low (1 mg/ml) glucose DMEM, 5% serum, 72 h, WT-hSOD1-GFP cells) was “not”, the “effects of rotenone on cell viability in the presence of octanoic acid” value ([1]; 3 mM octanoic acid, rotenone 1.25 micromol/liter for 24 h, WT-hSOD1-GFP cells) was “not” and the “effects of low glucose on cell viability in the presence of octanoic acid” value ([2]; 3 mM octanoic acid, low (1 mg/ml) glucose DMEM, 5% serum, 72 h, G93A-hSOD1-GFP cells) was “greatly diminished”. For the same molecule, the “effects of rotenone on cell viability in the presence of octanoic acid” value ([2]; 3 mM octanoic acid, rotenone 1.25 micromol/liter for 24 h, G93A-hSOD1-GFP cells) was “greatly diminished”.

In the case of “GQIAHSLLYSIGNG (listed as Mus musculus) [14-27 peptide]”, the “FRET signal of G93A-hSOD1-CFP/cytMDH-YFP” value [3] is reported as “found not to inhibit the interaction” and the “FRET signal of G93A-hSOD1-CFP/cytMDH-YFP” value ([3]; listed as peptide 14-27) is reported as “positive FRET”.
